Counter-ions that a name gives are not always drawn.

Experimental findings from patent US20250051361A1, “5,6,7,8-TETRAHYDRO-2,6-NAPHTHYRIDINE DERIVATIVES AS CANCER THERAPEUTICS” (VRise Therapeutics, Inc., priority 2021, published 2025) are described below.

The test system of one experiment is AGS cells. As to the kind of experiment: In vitro cell proliferation assay in AGS cell line. The following applies: Homo sapiens; for inhibition at 3 µM: TC1: Test Concentration of 3 uM; for inhibition at 10 µM: TC2: Test Concentration of 10 uM. The class given is cell-based. As for the experimental part: (§1) Test 1: In Vitro Cell Proliferation Assay in HPAC and AGS Cell Lines
(§2) Growth inhibition assays was carried out using 10% FBS supplemented media. Cells are to be seeded at a concentration of 2000-3,000 cells/well in a 96-well plate. Test compounds at a concentration range from 0.1 to 30 uM will be added after 24 hours. Growth will be assessed using the MTT or CCK-8 kit for measuring reduction at 0 h (prior to the addition of the test compound) and 72 to 96 hours after the addition of test compound. Absorbance read on a BIO-RAD iMark Microplate or any equivalent micloplate reader at a wavelength of 450 nm to 600 nm. Data will be analyzed and percent inhibition due to the test compound compared to the control is calculated accordingly.

The next experiment relates to HPAC cells. Description: In vitro cell proliferation assay in HPAC cell line. The class given is cell-based. The following applies: for inhibition at 3 µM / inhibition at 10 µM: Homo sapiens; for inhibition at 3 µM / % Inhibition of Cell Proliferation HPAC TC1: TC1: Test Concentration of 3 uM; for inhibition at 10 µM: TC2: Test Concentration of 10 uM; for % Inhibition of Cell Proliferation HPAC TC1: 3 µM. How it is done:
as §1, §2

The next experiment has as its target T1, human KRAS G12D protein (Homo sapiens, UniProt P01116, G12D).
T1 construct: A human KRAS G12D protein (corresponding to amino acid 2-169)
As to the kind of experiment: HTRF-based nucleotide exchange assay detecting GTP binding to K-Ras. The class given is biochemical. The following applies: human KRAS G12D (amino acid 2-169), SOS1 mediated exchange. How it is done: Test 3: Nucleotide Exchange Assay HTRF-based nucleotide exchange assay detecting GTP binding to K-Ras A human KRAS G12D protein (corresponding to amino acid 2-169) was mixed with a a-GST Tb antibody (1.5× solution) and 10 uL of the solution was added to the reaction wells). Compounds (each 10 concentrations or any other concentration of choice at 3-fold or fold of choice for serial dilutions with a starting concentration of […] or or 100 μM or 50 uM) were then delivered to the reaction wells using acoustic dispenser (Echo, Labcyte) and incubated with the Kras/aGST-Tb antibody for 1-hour at room temperature. […] HTRF based SOS1 mediated exchange of GDP to GTP was measured on a microplate reader […] (BMG Labtech) at an excitation wavelength of 337 nm and emission wavelengths of 665 and 620 nm. No-SOS1 reaction or highest control compound concentration was used as blank and % inhibition was calculated and/or IC50 was determined using Sigmoidal dose response (variable slope) equation.
For orientation: TR-FRET usually uses a lanthanide donor and a delayed reading to cut background.

T1 sequence (P01116 2-169 isoform P01116-2 G12D): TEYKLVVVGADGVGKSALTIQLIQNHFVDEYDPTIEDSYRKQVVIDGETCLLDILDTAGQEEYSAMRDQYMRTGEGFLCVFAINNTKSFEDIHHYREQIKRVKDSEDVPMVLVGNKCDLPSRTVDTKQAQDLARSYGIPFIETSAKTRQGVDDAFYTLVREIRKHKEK

Broadly, the inhibition is how much of the control response was suppressed. For `CN1CCC[C@H]1COc1nc(N2CC3CCC(C2)N3)c2c(c1C#N)CN(c1cc(O)cc3ccccc13)CC2` [Ex 1, 1-(3,8-diazabicyclo[3.2.1]octan-3-yl)-6-(3-hydroxynaphthalen-1-yl)-3-(((S)-1-methylpyrrolidin-2-yl)methoxy)-5,6,7,8-tetrahydro-2,6-naphthyridine-4-carbonitrile, hydrochloride], in the experiment on AGS cells, the inhibition at 3 µM lay within 25 to 50% and the inhibition at 10 µM lay within 75 to 100%.
For `CN1CCC[C@H]1COc1nc(N2CCNC(CC#N)C2)c2c(c1C#N)CN(c1cccc3cccc(Cl)c13)CC2` (stereo partly drawn) [Ex 3, 6-(8-chloronaphthalen-1-yl)-1-(3-(cyanomethyl)piperazin-1-yl)-3-(((S)-1-methylpyrrolidin-2-yl)methoxy)-5,6,7,8-tetrahydro-2,6-naphthyridine-4-carbonitrile hydrochloride] the same measures were 25 to 50% and 75 to 100%.
For `CN1CCC[C@H]1COc1nc(N2[C@@H]3CC[C@H]2CN(C(=O)OC(C)(C)C)C3)c2c(c1C#N)CN(c1cc(O)cc3ccccc13)CC2` [Ex 4, tert-butyl (1R,5S)-8-(4-cyano-6-(3-hydroxynaphthalen-1-yl)-3-(((S)-1-methylpyrrolidin-2-yl)methoxy)-5,6,7,8-tetrahydro-2,6-naphthyridin-1-yl)-3,8-diazabicyclo[3.2.1]octane-3-carboxylate] the same measures were 75 to 100% and 75 to 100%.
Regarding `CN1CCC[C@H]1COc1nc(N2[C@@H]3CC[C@H]2CNC3)c2c(c1C#N)CN(c1cc(O)cc3ccccc13)CC2` [Ex 5, 1-((1R,5S)-3,8-diazabicyclo[3.2.1]octan-8-yl)-6-(3-hydroxynaphthalen-1-yl)-3-(((S)-1-methylpyrrolidin-2-yl)methoxy)-5,6,7,8-tetrahydro-2,6-naphthyridine-4-carbonitrile Hydrochloride], in the experiment on AGS cells, the inhibition at 3 µM lay within 25 to 50% and the inhibition at 10 µM lay in the range of 75 to 100%.
Regarding `N#Cc1c(OCC23CCCN2CCC3)nc(N2[C@@H]3CC[C@H]2CNC3)c2c1CN(c1cccc3cccc(Br)c13)CC2` [Ex 7, 1-((1R,5S)-3,8-diazabicyclo[3.2.1]octan-8-yl)-6-(8-bromonaphthalen-1-yl)-3-((tetrahydro-1H-pyrrolizin-7a(5H)-yl)methoxy)-5,6,7,8-tetrahydro-2,6-naphthyridine-4-carbonitrile TFA salt], in the experiment on HPAC cells, the inhibition at 3 µM was 75 to 100% and the inhibition at 10 µM fell in the range of 75 to 100%.
Turning to `C#Cc1cccc2cccc(N3CCc4c(N5[C@@H]6CC[C@H]5CNC6)nc(OCC56CCCN5CCC6)c(C#N)c4C3)c12` [Ex 8, 1-((1R,5S)-3,8-diazabicyclo[3.2.1]octan-8-yl)-6-(8-ethynylnaphthalen-1-yl)-3-((tetrahydro-1H-pyrrolizin-7a(5H)-yl)methoxy)-5,6,7,8-tetrahydro-2,6-naphthyridine-4-carbonitrile TFA Salt], the inhibition at 10 µM in the experiment with HPAC cells lay in the range of 50 to 75%. In the experiment with HPAC cells (TFA Salt), the “% Inhibition of Cell Proliferation HPAC TC1” value is “A (A = ≤25%)”.
Regarding `N#Cc1c(OCC23CCCN2CCC3)nc(N2[C@@H]3CC[C@H]2CNC3)c2c1CN(c1cc(O)cc3cccc(Br)c13)CC2` [Ex 9, 1-((1R,5S)-3,8-diazabicyclo[3.2.1]octan-8-yl)-6-(8-bromo-3-hydroxynaphthalen-1-yl)-3-((tetrahydro-1H-pyrrolizin-7a(5H)-yl)methoxy)-5,6,7,8-tetrahydro-2,6-naphthyridine-4-carbonitrile Hydrochloride], in the experiment on HPAC cells, the inhibition at 3 µM was ≤ 25% and the inhibition at 10 µM lay within 75 to 100%.
On the same counts, the results for `CN1CCC[C@H]1COc1nc(N2[C@@H]3CC[C@H]2CNC3)c2c(c1C#N)CN(c1cccc3cccc(Br)c13)CC2` [Ex 10, 1-((1R,5S)-3,8-diazabicyclo[3.2.1]octan-8-yl)-6-(8-bromonaphthalen-1-yl)-3-(((S)-1-methylpyrrolidin-2-yl)methoxy)-5,6,7,8-tetrahydro-2,6-naphthyridine-4-carbonitrile Hydrochloride] are 75 to 100% and 75 to 100%.
For the compound `C#Cc1cccc2cccc(N3CCc4c(N5[C@@H]6CC[C@H]5CNC6)nc(OCC56CCCN5CCC6)c(C#N)c4C3)c12` [Ex 12, 1-((1R,5S)-3,8-diazabicyclo[3.2.1]octan-8-yl)-6-(8-ethynylnaphthalen-1-yl)-3-((tetrahydro-1H-pyrrolizin-7a(5H)-yl)methoxy)-5,6,7,8-tetrahydro-2,6-naphthyridine-4-carbonitrile Hydrochloride], in the experiment on HPAC cells (Hydrochloride), the “% Inhibition of Cell Proliferation HPAC TC1” value was “C (C = >50 to ≤75)”.
`C#Cc1cccc2cc(O)cc(N3CCc4c(N5[C@@H]6CC[C@H]5CNC6)nc(OCC56CCCN5CCC6)c(C#N)c4C3)c12` [Ex 14, 1-((1R,5S)-3,8-diazabicyclo[3.2.1]octan-8-yl)-6-(8-ethynyl-3-hydroxynaphthalen-1-yl)-3-((tetrahydro-1H-pyrrolizin-7a(5H)-yl)methoxy)-5,6,7,8-tetrahydro-2,6-naphthyridine-4-carbonitrile Hydrochloride]: in the experiment on HPAC cells, the inhibition at 3 µM is ≤ 25% and the inhibition at 10 µM was 50 to 75%.
On to `CN1CCC[C@H]1COc1nc(N2[C@@H]3CC[C@H]2CNC3)c2c(c1C#N)CN(c1cc(O)cc3cccc(Br)c13)CC2` [Ex 15, 1-((1R,5S)-3,8-diazabicyclo[3.2.1]octan-8-yl)-6-(8-bromo-3-hydroxynaphthalen-1-yl)-3-(((S)-1-methylpyrrolidin-2-yl)methoxy)-5,6,7,8-tetrahydro-2,6-naphthyridine-4-carbonitrile Hydrochloride], for which, in the experiment with HPAC cells, the inhibition at 3 µM was ≤ 25% and the inhibition at 10 µM is 75 to 100%.
In the experiment on AGS cells, `CN1CCC[C@H]1COc1nc(N2CC3CCC(C2)N3)c2c(c1C#N)CN(Cc1ccccc1)CC2` [Ex 18, 6-benzyl-1-(3,8-diazabicyclo[3.2.1]octan-3-yl)-3-(((S)-1-methylpyrrolidin-2-yl)methoxy)-5,6,7,8-tetrahydro-2,6-naphthyridine-4-carbonitrile Hydrochloride] came in with an inhibition at 3 µM of 25 to 50% and an inhibition at 10 µM of 75 to 100%. For the same compound, in the experiment with HPAC cells, the inhibition at 3 µM is ≤ 25% and the inhibition at 10 µM was in the range of 25 to 50%.
Regarding `CC(C)[C@@H](NC(=O)OC(C)(C)C)C(=O)N1CCN(c2nc(OC[C@@H]3CCCN3C)c(C#N)c3c2CCN(Cc2ccccc2)C3)CC1` [Ex 20, tert-butyl ((R)-1-(4-(6-benzyl-4-cyano-3-(((S)-1-methylpyrrolidin-2-yl)methoxy)-5,6,7,8-tetrahydro-2,6-naphthyridin-1-yl)piperazin-1-yl)-3-methyl-1-oxobutan-2-yl)carbamate], in the experiment on HPAC cells, the inhibition at 3 µM was ≤ 25% and the inhibition at 10 µM was in the range of 25 to 50%.
Turning to `CC(C)[C@@H](N)C(=O)N1CCN(c2nc(OC[C@@H]3CCCN3C)c(C#N)c3c2CCN(Cc2ccccc2)C3)CC1` [Ex 21, 1-(4-(D-valyl)piperazin-1-yl)-6-benzyl-3-(((S)-1-methylpyrrolidin-2-yl)methoxy)-5,6,7,8-tetrahydro-2,6-naphthyridine-4-carbonitrile Hydrochloride], in the experiment with HPAC cells, the inhibition at 3 µM is ≤ 25% and the inhibition at 10 µM is ≤ 25%.
Consider `C[C@@H](OCc1ccccc1)[C@H](N)C(=O)N1CCN(c2nc(OC[C@@H]3CCCN3C)c(C#N)c3c2CCN(Cc2ccccc2)C3)CC1` [Ex 23, 6-benzyl-1-(4-(O-benzyl-L-threonyl)piperazin-1-yl)-3-(((S)-1-methylpyrrolidin-2-yl)methoxy)-5,6,7,8-tetrahydro-2,6-naphthyridine-4-carbonitrile Hydrochloride], for which, in the experiment with HPAC cells, the inhibition at 3 µM is ≤ 25% and the inhibition at 10 µM was 50 to 75%.
The term IC50 denotes the concentration that gives 50% inhibition. Regarding `N#Cc1c(OCC2(CN3CCOCC3)CC2)nc(N2C[C@H]3CC[C@@H](C2)N3)c2c1CN(Cc1ccccc1)CC2` [Ex 24, 6-benzyl-1-((1R,5S)-3,8-diazabicyclo[3.2.1]octan-3-yl)-3-((1-(morpholinomethyl)cyclopropyl)methoxy)-5,6,7,8-tetrahydro-2,6-naphthyridine-4-carbonitrile Hydrochloride], at human KRAS G12D protein, the IC50 was > 1000 nM. In addition, in the experiment with HPAC cells, the inhibition at 3 µM was ≤ 25% and the inhibition at 10 µM is 25 to 50%.
On to `C[C@H]1CNCCN1c1nc(OCC2CCCN2C)c(C#N)c2c1CCN(Cc1ccccc1)C2` (stereo partly drawn) [Ex 75, 6-benzyl-1-((S)-2-methylpiperazin-1-yl)-3-((1-methylpyrrolidin-2-yl)methoxy)-5,6,7,8-tetrahydro-2,6-naphthyridine-4-carbonitrile hydrochloride], for which, in the experiment on AGS cells, the inhibition at 3 µM is ≤ 25% and the inhibition at 10 µM was ≤ 25%. For the same compound, in the experiment on HPAC cells, the inhibition at 3 µM is ≤ 25% and the inhibition at 10 µM was ≤ 25%.
